Test results published in patent publication US11051515B2, “3-acyl-benzamides and their use as herbicides” (Bayer Aktiengesellschaft, priority 2017, dated 2021).

Columns and labels:
ALOMY = test: Pre-emergence action against ALOMY; assay type: in vivo, Alopecurus myosuroides; settings: dosage 320 g/ha, pre-emergence, scored visually after 3 weeks vs untreated controls, 100% = plants have died, 0% = like control plants
Method in brief: (§1)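 Seeds sown in sandy loam in wood-fiber pots and covered with soil. Greenhouse growth; visual damage scored after 3 weeks versus untreated controls (100% = dead, 0% = like control).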

AVEFA [1] = test: Pre-emergence action against AVEFA; assay type: in vivo, Avena fatua; settings: dosage 320 g/ha, scored visually after 3 weeks vs untreated controls
Method in brief: as §1

CYPES [2] = test: Pre-emergence action against CYPES; assay type: in vivo, Cyperus esculentus; settings: pre-emergence, dosage 320 g/ha, scored visually after 3 weeks vs untreated controls
Method in brief: as §1

ECHCG [3] = test: Pre-emergence action against ECHCG; assay type: in vivo, Echinochloa crus-galli; settings: pre-emergence, dosage 320 g/ha, scored visually after 3 weeks vs untreated controls
Method in brief: as §1

LOLRI = test: Pre-emergence action against LOLRI; assay type: in vivo, Lolium rigidum; settings: dosage 320 g/ha, scored visually after 3 weeks vs untreated controls
Description: (§2) Seeds of monocotyledonous and dicotyledonous weed plants and crop plants are laid out in sandy loam soil in wood-fiber pots and covered with soil. The compounds of the invention, formulated in the form of wettable powders (WP) or as emulsion concentrates (EC), are then applied to the surface of the covering soil in the form of an aqueous suspension or emulsion at a water application rate equating to […], with addition of 0.2% wetting agent. After the treatment, the pots are placed in a greenhouse and kept under good growth conditions for the trial plants. The damage to the test plants is scored visually after a test period of 3 weeks by comparison with untreated controls (herbicidal activity in percent (%): 100% activity=the plants have died, 0% activity=like control plants).

SETVI [4] = test: Pre-emergence action against SETVI; assay type: in vivo, Setaria viridis; settings: pre-emergence, dosage 320 g/ha, scored visually after 3 weeks vs untreated controls
Method in brief: as §1

ABUTH [5] = test: Pre-emergence action against ABUTH; assay type: in vivo, Abutilon theophrasti; settings: pre-emergence, dosage 320 g/ha, scored visually after 3 weeks vs untreated controls
Method in brief: as §1

AMARE [6] = test: Pre-emergence action against AMARE; assay type: in vivo, Amaranthus retroflexus; settings: pre-emergence, dosage 320 g/ha, scored visually after 3 weeks vs untreated controls
Method in brief: as §1

MATIN [7] = test: Pre-emergence action against MATIN; assay type: in vivo, Matricaria inodora; settings: Dosage 320 g/ha, pre-emergence
Method in brief: as §1

PHBPU [8] = test: Pre-emergence action against PHBPU; assay type: in vivo, Pharbitis purpurea; settings: Dosage 320 g/ha, pre-emergence
Method in brief: as §1

STEME [9] = test: Pre-emergence action against STEME; assay type: in vivo, Stellaria media; settings: Dosage 320 g/ha, pre-emergence
Method in brief: as §1

VIOTR [10] = test: Pre-emergence action against VIOTR; assay type: in vivo, Viola tricolor; settings: Dosage 320 g/ha, pre-emergence
Method in brief: as §1

VERPE [11] = test: Pre-emergence action against VERPE; assay type: in vivo, Veronica persica; settings: Dosage 320 g/ha, pre-emergence
Method in brief: as §1

HORMU = test: Pre-emergence action against HORMU; assay type: in vivo, Hordeum murinum; settings: Dosage 320 g/ha
Description: as §2

ECHCG [12] = test: Post-emergence action against ECHCG; assay type: in vivo, Echinochloa crus-galli; settings: post-emergence, dosage 80 g/ha, visual assessment about 3 weeks after treatment vs untreated controls
Method in brief: (§3)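 Post-emergence foliar spray on greenhouse plants at the one-leaf stage, using wettable-powder or emulsion-concentrate formulations in water (600 to […], plus 0.2% wetting agent). Damage scored by eye roughly 3 weeks later against untreated plants: 0% = like control, 100% = dead.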

ABUTH [13] = test: Post-emergence action against ABUTH; assay type: in vivo, Abutilon theophrasti; settings: post-emergence, dosage 80 g/ha, visual assessment about 3 weeks after treatment vs untreated controls
Method in brief: as §3

AMARE [14] = test: Post-emergence action against AMARE; assay type: in vivo, Amaranthus retroflexus; settings: post-emergence, dosage 80 g/ha, visual assessment about 3 weeks after treatment vs untreated controls
Method in brief: as §3

MATIN [15] = test: Post-emergence action against MATIN; assay type: in vivo, Matricaria inodora; settings: post-emergence, dosage 80 g/ha, visual assessment about 3 weeks after treatment vs untreated controls
Method in brief: as §3

PHBPU [16] = test: Post-emergence action against PHBPU; assay type: in vivo, Pharbitis purpurea; settings: post-emergence, dosage 80 g/ha
Method in brief: as §3

STEME [17] = test: Post-emergence action against STEME; assay type: in vivo, Stellaria media; settings: post-emergence, dosage 80 g/ha
Method in brief: as §3

VIOTR [18] = test: Post-emergence action against VIOTR; assay type: in vivo, Viola tricolor; settings: post-emergence, dosage 80 g/ha
Method in brief: as §3

VERPE [19] = test: Post-emergence action against VERPE; assay type: in vivo, Veronica persica; settings: Veronica persica, 504 h, dosage 80 g/ha
Method in brief: as §3

AVEFA [20] = test: Post-emergence action against AVEFA; assay type: in vivo, Avena fatua; settings: post-emergence, dosage 80 g/ha, visual assessment about 3 weeks after treatment vs untreated controls
Method in brief: as §3

SETVI [21] = test: Post-emergence action against SETVI; assay type: in vivo, Setaria viridis; settings: post-emergence, dosage 80 g/ha, visual assessment about 3 weeks after treatment vs untreated controls
Method in brief: as §3

POLCO [22] = test: Pre-emergence action against POLCO; assay type: in vivo, Polygonum convolvulus; settings: Dosage 320 g/ha, pre-emergence
Method in brief: as §1

CYPES [23] = test: Post-emergence action against CYPES; assay type: in vivo, Cyperus esculentus; settings: post-emergence, dosage 80 g/ha, visual assessment about 3 weeks after treatment vs untreated controls
Method in brief: as §3

POLCO [24] = test: Post-emergence action against POLCO; assay type: in vivo, Polygonum convolvulus; settings: post-emergence, dosage 80 g/ha
Method in brief: as §3

SMILES: CCCC(=O)c1c(C(F)(F)F)ccc(C(=O)Nc2nnnn2C)c1Cl [1-139]
- pest or weed control at 320 g/ha (ALOMY; Alopecurus myosuroides, 504 h, read-out: Pre-emergence action against ALOMY (herbicidal activity in percent)): 100%
- pest or weed control at 320 g/ha (AVEFA [1]; Avena fatua, 504 h, read-out: Pre-emergence action against AVEFA (herbicidal activity)): 100%
- pest or weed control at 320 g/ha (CYPES [2]; Cyperus esculentus, 504 h, read-out: Pre-emergence action against CYPES (herbicidal activity)): 90%
- pest or weed control at 320 g/ha (ECHCG [3]; Echinochloa crus-galli, 504 h, read-out: Pre-emergence action against ECHCG (herbicidal activity)): 100%
- pest or weed control at 320 g/ha (LOLRI; Lolium rigidum, 504 h, read-out: Pre-emergence action against LOLRI (herbicidal activity)): 100%
- pest or weed control at 320 g/ha (SETVI [4]; Setaria viridis, 504 h, read-out: SETVI (Table B8, pre-emergence herbicidal activity)): 100%
- pest or weed control at 320 g/ha (ABUTH [5]; Abutilon theophrasti, 504 h, read-out: Pre-emergence action against ABUTH (herbicidal activity)): 100%
- pest or weed control at 320 g/ha (AMARE [6]; Amaranthus retroflexus, 504 h, read-out: Pre-emergence action against AMARE (herbicidal activity)): 100%
- pest or weed control at 320 g/ha (MATIN [7]; Tripleurospermum inodorum, 504 h): 100%
- pest or weed control at 320 g/ha (PHBPU [8]; Ipomoea purpurea, 504 h): 100%
- pest or weed control at 320 g/ha (STEME [9]; Stellaria media, 504 h): 100%
- pest or weed control at 320 g/ha (VIOTR [10]; Viola tricolor, 504 h): 100%
- pest or weed control at 320 g/ha (VERPE [11]; Veronica persica, 504 h): 100%
- pest or weed control at 320 g/ha (HORMU; Hordeum murinum, 504 h): 90%
- pest or weed control at 80 g/ha (ECHCG [12]; Echinochloa crus-galli, 504 h, read-out: Post-emergence action against ECHCG (herbicidal action in percent)): 90%
- pest or weed control at 80 g/ha (ABUTH [13]; Abutilon theophrasti, 504 h, read-out: Post-emergence action against ABUTH (herbicidal action in percent)): 90%
- pest or weed control at 80 g/ha (AMARE [14]; Amaranthus retroflexus, 504 h, read-out: Post-emergence action against AMARE (herbicidal action in percent)): 100%
- pest or weed control at 80 g/ha (MATIN [15]; Tripleurospermum inodorum, 504 h, read-out: Post-emergence action against MATIN (herbicidal action in percent)): 90%
- pest or weed control at 80 g/ha (PHBPU [16]; Ipomoea purpurea, 504 h): 100%
- pest or weed control at 80 g/ha (STEME [17]; Stellaria media, 504 h): 100%
- pest or weed control at 80 g/ha (VIOTR [18]; Viola tricolor, 504 h): 100%
- pest or weed control at 80 g/ha (VERPE [19]): 80%

SMILES: Cn1nnnc1NC(=O)c1ccc(C(F)(F)F)c(C(=O)C2(C)CC2)c1Cl [1-147]
- Pre-emergence action against ALOMY (herbicidal activity in percent) (ALOMY): 100%
- Pre-emergence action against AVEFA (herbicidal activity) (AVEFA [1]): 90%
- Pre-emergence action against CYPES (herbicidal activity) (CYPES [2]): 100%
- Pre-emergence action against ECHCG (herbicidal activity) (ECHCG [3]): 100%
- Pre-emergence action against LOLRI (herbicidal activity) (LOLRI): 90%
- SETVI (Table B8, pre-emergence herbicidal activity) (SETVI [4]): 100%
- Pre-emergence action against ABUTH (herbicidal activity) (ABUTH [5]): 100%
- Pre-emergence action against AMARE (herbicidal activity) (AMARE [6]): 100%
- Pre-emergence action against MATIN (MATIN [7]): 100%
- Pre-emergence action against STEME (STEME [9]): 100%
- Pre-emergence action against VIOTR (VIOTR [10]): 100%
- Pre-emergence action against VERPE (VERPE [11]): 100%
- Pre-emergence action against HORMU (HORMU): 90%
- Post-emergence action against AVEFA (herbicidal action in percent) (AVEFA [20]): 100%
- Post-emergence action against ECHCG (herbicidal action in percent) (ECHCG [12]): 100%
- Post-emergence action against SETVI (herbicidal action in percent) (SETVI [21]): 100%
- Post-emergence action against ABUTH (herbicidal action in percent) (ABUTH [13]): 100%
- Post-emergence action against AMARE (herbicidal action in percent) (AMARE [14]): 100%
- Post-emergence action against MATIN (herbicidal action in percent) (MATIN [15]): 90%
- Post-emergence action against PHBPU (PHBPU [16]): 80
- Post-emergence action against STEME (STEME [17]): 80

SMILES: CCn1nnnc1NC(=O)c1ccc(C(F)F)c(C(C)=O)c1Cl [2-164]
- Pre-emergence action against ALOMY (herbicidal activity in percent) (ALOMY): 100%
- Pre-emergence action against AVEFA (herbicidal activity) (AVEFA [1]): 90%
- Pre-emergence action against CYPES (herbicidal activity) (CYPES [2]): 100%
- Pre-emergence action against ECHCG (herbicidal activity) (ECHCG [3]): 100%
- Pre-emergence action against LOLRI (herbicidal activity) (LOLRI): 80%
- SETVI (Table B8, pre-emergence herbicidal activity) (SETVI [4]): 100%
- Pre-emergence action against ABUTH (herbicidal activity) (ABUTH [5]): 100%
- Pre-emergence action against AMARE (herbicidal activity) (AMARE [6]): 100%
- Pre-emergence action against MATIN (MATIN [7]): 100%
- Pre-emergence action against PHBPU (PHBPU [8]): 90%
- Pre-emergence action against POLCO (POLCO [22]): 100%
- Pre-emergence action against STEME (STEME [9]): 100%
- Pre-emergence action against VIOTR (VIOTR [10]): 100%
- Pre-emergence action against VERPE (VERPE [11]): 100%
- Pre-emergence action against HORMU (HORMU): 80%
- Post-emergence action against CYPES (herbicidal action in percent) (CYPES [23]): 90%
- Post-emergence action against ECHCG (herbicidal action in percent) (ECHCG [12]): 100%
- Post-emergence action against SETVI (herbicidal action in percent) (SETVI [21]): 100%
- Post-emergence action against ABUTH (herbicidal action in percent) (ABUTH [13]): 100%
- Post-emergence action against AMARE (herbicidal action in percent) (AMARE [14]): 100%
- Post-emergence action against MATIN (herbicidal action in percent) (MATIN [15]): 100%
- Post-emergence action against PHBPU (PHBPU [16]): 100
- Post-emergence action against POLCO (POLCO [24]): 80
- Post-emergence action against STEME (STEME [17]): 100
- Post-emergence action against VIOTR (VIOTR [18]): 100
